Assays:
Experiment in all cases: radiometric filter-binding kinase assay, Kinase HotSpot
Conditions in all cases: compound 0.5 µM; ATP 10 µM
[1] = molecular target: PIM3 (human) (UniProt Q86V86)
[2] = molecular target: FGFR4 (human) (UniProt P22455)
[3] = molecular target: PLK1 (human) (UniProt P53350)
[4] = molecular target: STK4 (human) (UniProt Q13043)
[5] = molecular target: MAPK11 (human) (UniProt Q15759)
[6] = molecular target: GSG2 (human) (UniProt Q8TF76)
[7] = molecular target: MAP3K9 (human) (UniProt P80192)
[8] = molecular target: TNK2 (human) (UniProt Q07912)
[9] = molecular target: IRAK1 (human) (UniProt P51617)
[10] = molecular target: CDK5 CDK5R1 p35 (human) (UniProt Q00535+Q15078)
[11] = molecular target: MATK (human) (UniProt P42679)
[12] = molecular target: GSK3B (human) (UniProt P49841)
[13] = molecular target: MAP3K2 (human) (UniProt Q9Y2U5)
[14] = molecular target: SRMS (human) (UniProt Q9H3Y6)
[15] = molecular target: ITK (human) (UniProt Q08881)
[16] = molecular target: ACVRL1 (human) (UniProt P37023)
[17] = molecular target: CDC42BPB (human) (UniProt Q9Y5S2)
[18] = molecular target: CAMK2G (human) (UniProt Q13555)
[19] = molecular target: NEK11 (human) (UniProt Q8NG66)
[20] = molecular target: MAP3K10 (human) (UniProt Q02779)
[21] = molecular target: DDR2 (human) (UniProt Q16832)
[22] = molecular target: PASK (human) (UniProt Q96RG2)
[23] = molecular target: SRPK1 (human) (UniProt Q96SB4)
[24] = molecular target: CAMKK2 (human) (UniProt Q96RR4)
[25] = molecular target: NLK (human) (UniProt Q9UBE8)
[26] = molecular target: INSR (human) (UniProt P06213)
[27] = molecular target: BRSK2 (human) (UniProt Q8IWQ3)
[28] = molecular target: CHEK1 (human) (UniProt O14757)
[29] = molecular target: CDK1 CCNA2 (human) (UniProt P06493+P20248)
[30] = molecular target: MAP2K1 (human) (UniProt Q02750)
[31] = molecular target: CDK4 CCND1 (human) (UniProt P24385+P11802)
[32] = molecular target: GRK6 (human) (UniProt P43250)
[33] = molecular target: TXK (human) (UniProt P42681)
[34] = molecular target: AKT1 (human) (UniProt P31749)
[35] = molecular target: RPS6KA5 KD2 (human) (UniProt O75582)
[36] = molecular target: FLT3 (human) (UniProt P36888)
[37] = molecular target: MAPK14 (human) (UniProt Q16539)
[38] = molecular target: CDK2 CCNE1 (human) (UniProt P24941+P24864)
[39] = molecular target: HIPK2 (human) (UniProt Q9H2X6)
[40] = molecular target: TSSK1B (human) (UniProt Q9BXA7)
[41] = molecular target: STK39 (human) (UniProt Q9UEW8)
[42] = molecular target: AURKB (human) (UniProt Q96GD4)

Sequence of ITK (human) (Q08881 whole entry, looked up): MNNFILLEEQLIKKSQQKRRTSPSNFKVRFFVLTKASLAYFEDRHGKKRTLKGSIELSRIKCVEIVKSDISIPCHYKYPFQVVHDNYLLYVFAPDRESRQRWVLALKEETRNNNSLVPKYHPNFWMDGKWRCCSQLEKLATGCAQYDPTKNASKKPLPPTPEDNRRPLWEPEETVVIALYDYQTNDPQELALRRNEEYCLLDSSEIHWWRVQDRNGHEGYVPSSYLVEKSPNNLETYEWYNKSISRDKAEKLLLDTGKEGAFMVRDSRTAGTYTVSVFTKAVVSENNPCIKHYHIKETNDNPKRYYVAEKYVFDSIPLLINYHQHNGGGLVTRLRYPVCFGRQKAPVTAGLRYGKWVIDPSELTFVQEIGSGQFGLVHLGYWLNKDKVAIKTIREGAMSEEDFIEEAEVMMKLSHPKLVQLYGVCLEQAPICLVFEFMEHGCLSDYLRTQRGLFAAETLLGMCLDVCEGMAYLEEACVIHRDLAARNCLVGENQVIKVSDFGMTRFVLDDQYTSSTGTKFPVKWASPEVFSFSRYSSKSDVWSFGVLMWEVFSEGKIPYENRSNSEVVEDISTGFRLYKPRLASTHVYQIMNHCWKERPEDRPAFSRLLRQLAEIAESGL
Sequence of SRPK1 (human) (Q96SB4 whole entry, looked up): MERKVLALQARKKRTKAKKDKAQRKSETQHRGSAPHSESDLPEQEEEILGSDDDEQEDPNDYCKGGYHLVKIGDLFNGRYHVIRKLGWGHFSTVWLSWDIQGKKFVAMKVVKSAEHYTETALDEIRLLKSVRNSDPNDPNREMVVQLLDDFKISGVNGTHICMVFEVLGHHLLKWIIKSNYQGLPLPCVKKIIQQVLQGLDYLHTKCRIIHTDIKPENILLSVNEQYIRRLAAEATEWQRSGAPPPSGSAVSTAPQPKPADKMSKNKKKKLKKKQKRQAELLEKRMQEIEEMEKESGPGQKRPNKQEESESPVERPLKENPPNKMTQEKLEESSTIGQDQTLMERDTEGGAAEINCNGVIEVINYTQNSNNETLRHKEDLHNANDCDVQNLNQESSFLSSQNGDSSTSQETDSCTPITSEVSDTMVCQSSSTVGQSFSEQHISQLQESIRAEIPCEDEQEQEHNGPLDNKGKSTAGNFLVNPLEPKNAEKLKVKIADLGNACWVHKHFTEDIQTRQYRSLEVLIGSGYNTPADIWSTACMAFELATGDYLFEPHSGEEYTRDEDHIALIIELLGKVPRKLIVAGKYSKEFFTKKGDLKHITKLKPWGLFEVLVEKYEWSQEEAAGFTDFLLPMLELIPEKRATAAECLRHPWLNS
Sequence of CAMKK2 (human) (Q96RR4 whole entry, looked up): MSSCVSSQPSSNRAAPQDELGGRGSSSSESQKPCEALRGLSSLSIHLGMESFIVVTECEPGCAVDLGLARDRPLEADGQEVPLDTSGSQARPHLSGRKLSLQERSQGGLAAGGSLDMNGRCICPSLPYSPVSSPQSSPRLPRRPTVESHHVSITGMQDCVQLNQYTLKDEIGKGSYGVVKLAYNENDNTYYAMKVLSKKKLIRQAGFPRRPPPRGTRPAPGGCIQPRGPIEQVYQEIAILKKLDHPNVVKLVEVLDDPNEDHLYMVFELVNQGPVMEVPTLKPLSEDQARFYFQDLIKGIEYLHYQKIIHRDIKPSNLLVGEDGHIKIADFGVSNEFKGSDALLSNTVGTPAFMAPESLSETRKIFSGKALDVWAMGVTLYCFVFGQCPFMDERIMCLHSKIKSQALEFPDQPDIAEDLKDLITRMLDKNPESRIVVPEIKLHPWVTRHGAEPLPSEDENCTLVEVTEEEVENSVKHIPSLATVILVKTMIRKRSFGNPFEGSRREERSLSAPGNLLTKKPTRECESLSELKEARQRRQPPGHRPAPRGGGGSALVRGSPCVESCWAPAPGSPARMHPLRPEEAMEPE
Sequence of AKT1 (human) (P31749 whole entry, looked up): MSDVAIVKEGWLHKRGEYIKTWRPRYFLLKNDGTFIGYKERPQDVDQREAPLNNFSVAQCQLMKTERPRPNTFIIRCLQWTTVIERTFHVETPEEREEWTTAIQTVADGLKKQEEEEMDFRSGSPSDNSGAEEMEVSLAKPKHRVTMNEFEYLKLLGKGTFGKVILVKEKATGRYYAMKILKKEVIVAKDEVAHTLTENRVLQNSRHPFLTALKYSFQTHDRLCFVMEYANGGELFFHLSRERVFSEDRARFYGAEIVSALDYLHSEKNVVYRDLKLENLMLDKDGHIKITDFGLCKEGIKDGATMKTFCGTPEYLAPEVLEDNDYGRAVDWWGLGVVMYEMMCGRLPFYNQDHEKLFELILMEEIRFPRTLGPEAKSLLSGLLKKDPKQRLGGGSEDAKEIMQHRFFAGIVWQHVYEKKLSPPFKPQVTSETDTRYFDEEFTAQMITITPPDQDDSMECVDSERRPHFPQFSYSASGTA
Sequence of CHEK1 (human) (O14757 whole entry, looked up): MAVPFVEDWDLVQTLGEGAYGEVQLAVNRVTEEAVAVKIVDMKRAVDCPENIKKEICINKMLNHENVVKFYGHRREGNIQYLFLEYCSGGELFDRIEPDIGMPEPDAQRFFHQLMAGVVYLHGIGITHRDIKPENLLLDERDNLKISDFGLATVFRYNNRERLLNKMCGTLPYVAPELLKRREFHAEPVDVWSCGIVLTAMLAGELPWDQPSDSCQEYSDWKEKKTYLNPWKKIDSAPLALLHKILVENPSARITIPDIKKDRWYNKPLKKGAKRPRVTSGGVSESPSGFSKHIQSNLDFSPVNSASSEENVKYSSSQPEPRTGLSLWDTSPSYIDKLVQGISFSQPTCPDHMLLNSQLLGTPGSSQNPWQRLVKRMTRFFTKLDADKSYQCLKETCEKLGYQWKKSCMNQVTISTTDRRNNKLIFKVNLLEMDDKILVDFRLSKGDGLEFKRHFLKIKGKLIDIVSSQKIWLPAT
Sequence of CAMK2G (human) (Q13555 whole entry, looked up): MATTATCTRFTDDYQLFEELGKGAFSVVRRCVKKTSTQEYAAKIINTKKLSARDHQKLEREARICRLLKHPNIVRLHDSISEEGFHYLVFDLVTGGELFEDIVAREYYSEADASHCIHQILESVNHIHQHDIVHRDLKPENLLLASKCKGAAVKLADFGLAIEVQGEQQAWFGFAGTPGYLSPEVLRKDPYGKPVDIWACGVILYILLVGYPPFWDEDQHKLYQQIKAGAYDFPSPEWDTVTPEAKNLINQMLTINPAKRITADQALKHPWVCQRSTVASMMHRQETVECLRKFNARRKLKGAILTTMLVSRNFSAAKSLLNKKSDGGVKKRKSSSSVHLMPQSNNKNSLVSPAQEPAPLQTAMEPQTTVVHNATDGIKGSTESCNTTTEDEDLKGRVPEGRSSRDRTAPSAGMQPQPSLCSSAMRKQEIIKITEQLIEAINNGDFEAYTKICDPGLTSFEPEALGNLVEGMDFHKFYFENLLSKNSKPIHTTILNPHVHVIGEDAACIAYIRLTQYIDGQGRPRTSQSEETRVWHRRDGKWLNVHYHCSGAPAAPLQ
Sequence of MAP3K10 (human) (Q02779 whole entry, looked up): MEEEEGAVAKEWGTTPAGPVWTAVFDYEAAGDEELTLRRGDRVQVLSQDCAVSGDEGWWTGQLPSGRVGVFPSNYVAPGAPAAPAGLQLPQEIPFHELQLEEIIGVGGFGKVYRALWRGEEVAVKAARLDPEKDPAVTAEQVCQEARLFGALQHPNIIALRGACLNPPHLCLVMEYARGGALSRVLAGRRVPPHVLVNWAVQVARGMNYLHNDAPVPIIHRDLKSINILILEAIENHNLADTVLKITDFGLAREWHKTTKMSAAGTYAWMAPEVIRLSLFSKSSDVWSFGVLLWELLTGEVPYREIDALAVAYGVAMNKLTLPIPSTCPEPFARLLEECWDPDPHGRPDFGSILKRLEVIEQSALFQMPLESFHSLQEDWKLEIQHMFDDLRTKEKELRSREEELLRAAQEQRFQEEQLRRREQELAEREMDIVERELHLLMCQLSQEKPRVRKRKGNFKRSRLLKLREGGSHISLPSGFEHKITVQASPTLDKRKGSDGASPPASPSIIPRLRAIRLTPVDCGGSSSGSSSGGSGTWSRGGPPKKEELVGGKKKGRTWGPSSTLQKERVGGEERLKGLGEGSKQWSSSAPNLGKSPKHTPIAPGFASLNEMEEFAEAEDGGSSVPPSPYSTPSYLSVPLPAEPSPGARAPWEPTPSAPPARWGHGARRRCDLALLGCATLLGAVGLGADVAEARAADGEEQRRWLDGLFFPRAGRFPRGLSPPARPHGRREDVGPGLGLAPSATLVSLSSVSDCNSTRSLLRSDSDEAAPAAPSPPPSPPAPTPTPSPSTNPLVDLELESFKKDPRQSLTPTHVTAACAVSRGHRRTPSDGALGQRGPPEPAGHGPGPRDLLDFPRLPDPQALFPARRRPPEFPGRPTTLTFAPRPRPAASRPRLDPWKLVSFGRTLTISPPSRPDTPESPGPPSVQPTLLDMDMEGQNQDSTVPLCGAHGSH
Sequence of NEK11 (human) (Q8NG66 whole entry, looked up): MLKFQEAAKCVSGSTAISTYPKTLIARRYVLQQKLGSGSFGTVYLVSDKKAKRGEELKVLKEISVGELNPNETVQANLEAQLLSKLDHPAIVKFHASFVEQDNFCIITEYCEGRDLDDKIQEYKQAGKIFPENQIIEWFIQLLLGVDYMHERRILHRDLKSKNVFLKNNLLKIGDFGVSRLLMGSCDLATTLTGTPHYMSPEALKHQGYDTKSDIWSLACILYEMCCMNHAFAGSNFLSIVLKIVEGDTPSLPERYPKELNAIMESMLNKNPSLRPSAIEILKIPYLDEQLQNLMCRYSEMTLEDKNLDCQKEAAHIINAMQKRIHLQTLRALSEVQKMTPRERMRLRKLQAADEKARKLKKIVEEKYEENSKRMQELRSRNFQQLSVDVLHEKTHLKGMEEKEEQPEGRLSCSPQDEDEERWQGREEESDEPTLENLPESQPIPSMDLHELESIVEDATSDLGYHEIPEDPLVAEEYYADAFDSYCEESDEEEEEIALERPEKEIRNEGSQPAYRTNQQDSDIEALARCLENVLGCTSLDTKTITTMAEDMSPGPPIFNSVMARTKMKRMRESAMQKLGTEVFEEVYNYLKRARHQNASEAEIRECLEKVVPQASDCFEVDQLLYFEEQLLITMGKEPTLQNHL

## O=c1cc(-c2cccc3c2Sc2ccccc2S3)oc(N2CCOCC2)c1
[1]
  residual activity: 52.3%
[2]
  residual activity: 100%
[3]
  residual activity: 102%
[4]
  residual activity: 95%
[5]
  residual activity: 102%
[6]
  residual activity: 106%
[7]
  residual activity: 95.5%
[8]
  residual activity: 95.7%
[9]
  residual activity: 103%
[10]
  residual activity: 99.5%
[11]
  residual activity: 102%
[12]
  residual activity: 98.7%
[13]
  residual activity: 92.7%
[14]
  residual activity: 93.8%
[15]
  residual activity: 96.6%
[16]
  residual activity: 99.9%
[17]
  residual activity: 103%
[18]
  residual activity: 106%
[19]
  residual activity: 88.5%
[20]
  residual activity: 95.9%
[21]
  residual activity: 99.2%
[22]
  residual activity: 101%
[23]
  residual activity: 105%
[24]
  residual activity: 133%
[25]
  residual activity: 108%
[26]
  residual activity: 105%
[27]
  residual activity: 101%
[28]
  residual activity: 109%
[29]
  residual activity: 104%
[30]
  residual activity: 94.9%
[31]
  residual activity: 112%
[32]
  residual activity: 83%
[33]
  residual activity: 106%
[34]
  residual activity: 113%
[35]
  residual activity: 117%
[36]
  residual activity: 98.4%
[37]
  residual activity: 99.3%
[38]
  residual activity: 84.6%
[39]
  residual activity: 105%
[40]
  residual activity: 107%
[41]
  residual activity: 84%
[42]
  residual activity: 95.8%

From the kinase profiling compilation of Christmann-Franck et al. (2016)
